What all share (test): relative viability (nuclei count vs DMSO), 5 days (fraction); higher = more cells survive
Compound in test [1]: C1=CC(=CC=C1NC(=S)NNC2=C(C=C(C=C2[N+](=O)[O-])C(F)(F)F)[N+](=O)[O-])F [Kobe2602] + Cc1nc(Nc2ncc(C(=O)Nc3c(C)cccc3Cl)s2)cc(N2CCN(CCO)CC2)n1 [Dasatinib] (partner 0.075 µM)
In a few lines:
(§1)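 Lung cancer cell lines were pin-tool dosed in 1536-well plates on the day after seeding, with either a lone drug or a fixed anchor-drug dose plus five library-drug doses (not always all listed) in √10 steps. Nuclei were counted on 4× images after 5 days. Relative viability is the ratio of treated-well to vehicle-well nuclei counts, with each value a median of duplicate plates.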

Compound in test [2]: C1=CC(=CC=C1NC(=S)NNC2=C(C=C(C=C2[N+](=O)[O-])C(F)(F)F)[N+](=O)[O-])F [Kobe2602] + CC(C)C[C@H](NC(=O)[C@H](Cc1ccccc1)NC(=O)c1cnccn1)B(O)O [Bortezomib] (partner 0.002 µM)
The procedure, abridged: as §1

Compound in test [3]: COc1cc2nccc(Oc3ccc(NC(=O)C4(C(=O)Nc5ccc(F)cc5)CC4)cc3)c2cc1OC [Cabozantinib] + COc1cc2c(Oc3ccc(NC(=O)C4(C(=O)Nc5ccc(F)cc5)CC4)cc3F)ccnc2cc1OCCCN1CCOCC1 [Foretinib] (partner 0.25 µM)
The procedure, abridged: as §1

Compound in test [4]: C1=CC(=CC=C1NC(=S)NNC2=C(C=C(C=C2[N+](=O)[O-])C(F)(F)F)[N+](=O)[O-])F [Kobe2602] + N=C(N)NC(=N)NCCc1ccccc1 [Phenformin] (partner 250 µM)
In a few lines:
as §1

For UMC-11, the relative viability came to 0.49 in test [1] (first compound 0.2 µM); 0.449 in test [1] (first compound 0.6325 µM); 0.449 in test [1] (first compound 2 µM); 0.451 in test [1] (first compound 6.325 µM); 0.452 in test [1] (first compound 20 µM); 0.779 in test [2] (first compound 0.2 µM). The relative viability in test [2] (first compound 0.6325 µM) was 0.819; in test [2] (first compound 2 µM), 0.795; in test [2] (first compound 6.325 µM), 0.628; in test [2] (first compound 20 µM), 0.645; in test [3] (first compound 0.02 µM), 0.959; in test [3] (first compound 0.06325 µM), 1.21. For the same cell line, the relative viability in test [3] (first compound 0.2 µM) came to 1.01; in test [3] (first compound 0.6325 µM) it was 1.03; in test [3] (first compound 2 µM) it was 0.942; in test [4] (first compound 0.2 µM), 0.358; in test [4] (first compound 0.6325 µM), 0.336; in test [4] (first compound 2 µM), 0.334. In addition, the relative viability came to 0.335 in test [4] (first compound 6.325 µM) and 0.306 in test [4] (first compound 20 µM).
